The kinase profiling compilation of Christmann-Franck et al. (2016)

Tests used:
Test in all cases: radiometric filter-binding kinase assay, Kinase HotSpot
Settings in all cases: compound 0.5 µM; ATP 10 µM
PRKCB1 (human) = PRKCB1 (human) (UniProt P05771)
MAPK14 (human) = MAPK14 (human) (UniProt Q16539)
TEC (human) = TEC (human) (UniProt P42680)
ERBB2 (human) = ERBB2 (human) (UniProt P04626)
DCLK2 (human) = DCLK2 (human) (UniProt Q8N568)
RIPK2 (human) = RIPK2 (human) (UniProt O43353)
PHKG1 (human) = PHKG1 (human) (UniProt Q16816)
MAP3K5 (human) = MAP3K5 (human) (UniProt Q99683)
FER (human) = FER (human) (UniProt P16591)
CDK4 CCND1 (human) = CDK4 CCND1 (human) (UniProt P24385+P11802)
AKT1 (human) = AKT1 (human) (UniProt P31749)
ROCK1 (human) = ROCK1 (human) (UniProt Q13464)
[1] = molecular target: TYK2 JH1 catalytic (human) (UniProt P29597)
KDR (human) = KDR (human) (UniProt P35968)
MAPK11 (human) = MAPK11 (human) (UniProt Q15759)
CDC42BPB (human) = CDC42BPB (human) (UniProt Q9Y5S2)
NEK2 (human) = NEK2 (human) (UniProt P51955)
STK17A (human) = STK17A (human) (UniProt Q9UEE5)
ACVR1 (human) = ACVR1 (human) (UniProt Q04771)
CDK6 CCND1 (human) = CDK6 CCND1 (human) (UniProt Q00534+P24385)
JAK3 JH1 JH2 (human) = JAK3 JH1 JH2 (human) (UniProt P52333)
CLK3 (human) = CLK3 (human) (UniProt P49761)
DAPK1 (human) = DAPK1 (human) (UniProt P53355)
CSNK1D (human) = CSNK1D (human) (UniProt P48730)
MAPK12 (human) = MAPK12 (human) (UniProt P53778)
MERTK (human) = MERTK (human) (UniProt Q12866)
FYN (human) = FYN (human) (UniProt P06241)
EPHB4 (human) = EPHB4 (human) (UniProt P54760)
PLK1 (human) = PLK1 (human) (UniProt P53350)
TGFBR2 (human) = TGFBR2 (human) (UniProt P37173)
PIM1 (human) = PIM1 (human) (UniProt P11309)
AURKB (human) = AURKB (human) (UniProt Q96GD4)
PAK4 (human) = PAK4 (human) (UniProt O96013)
PDGFRA (human) = PDGFRA (human) (UniProt P16234)
MST1R (human) = MST1R (human) (UniProt Q04912)
TBK1 (human) = TBK1 (human) (UniProt Q9UHD2)
CDK4 CCND3 (human) = CDK4 CCND3 (human) (UniProt P30281+P11802)
EPHA2 (human) = EPHA2 (human) (UniProt P29317)
CHEK2 (human) = CHEK2 (human) (UniProt O96017)
MAP3K14 (human) = MAP3K14 (human) (UniProt Q99558)
TXK (human) = TXK (human) (UniProt P42681)
EPHB3 (human) = EPHB3 (human) (UniProt P54753)

Chain of TGFBR2 (human) (P37173 whole entry, looked up): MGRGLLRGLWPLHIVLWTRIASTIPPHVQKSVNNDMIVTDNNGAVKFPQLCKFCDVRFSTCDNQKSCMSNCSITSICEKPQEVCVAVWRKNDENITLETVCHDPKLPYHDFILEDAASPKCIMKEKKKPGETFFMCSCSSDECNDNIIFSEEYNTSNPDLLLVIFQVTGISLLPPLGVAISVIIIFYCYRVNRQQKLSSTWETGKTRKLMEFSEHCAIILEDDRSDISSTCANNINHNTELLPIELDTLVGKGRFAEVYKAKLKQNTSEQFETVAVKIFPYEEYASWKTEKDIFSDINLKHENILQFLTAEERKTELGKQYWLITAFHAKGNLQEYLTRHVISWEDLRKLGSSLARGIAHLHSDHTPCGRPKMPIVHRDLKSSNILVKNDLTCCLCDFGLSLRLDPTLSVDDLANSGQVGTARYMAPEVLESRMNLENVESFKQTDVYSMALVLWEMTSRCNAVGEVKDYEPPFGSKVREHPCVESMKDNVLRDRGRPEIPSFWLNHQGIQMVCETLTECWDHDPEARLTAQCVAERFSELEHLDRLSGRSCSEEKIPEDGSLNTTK
Chain of CDC42BPB (human) (Q9Y5S2 whole entry, looked up): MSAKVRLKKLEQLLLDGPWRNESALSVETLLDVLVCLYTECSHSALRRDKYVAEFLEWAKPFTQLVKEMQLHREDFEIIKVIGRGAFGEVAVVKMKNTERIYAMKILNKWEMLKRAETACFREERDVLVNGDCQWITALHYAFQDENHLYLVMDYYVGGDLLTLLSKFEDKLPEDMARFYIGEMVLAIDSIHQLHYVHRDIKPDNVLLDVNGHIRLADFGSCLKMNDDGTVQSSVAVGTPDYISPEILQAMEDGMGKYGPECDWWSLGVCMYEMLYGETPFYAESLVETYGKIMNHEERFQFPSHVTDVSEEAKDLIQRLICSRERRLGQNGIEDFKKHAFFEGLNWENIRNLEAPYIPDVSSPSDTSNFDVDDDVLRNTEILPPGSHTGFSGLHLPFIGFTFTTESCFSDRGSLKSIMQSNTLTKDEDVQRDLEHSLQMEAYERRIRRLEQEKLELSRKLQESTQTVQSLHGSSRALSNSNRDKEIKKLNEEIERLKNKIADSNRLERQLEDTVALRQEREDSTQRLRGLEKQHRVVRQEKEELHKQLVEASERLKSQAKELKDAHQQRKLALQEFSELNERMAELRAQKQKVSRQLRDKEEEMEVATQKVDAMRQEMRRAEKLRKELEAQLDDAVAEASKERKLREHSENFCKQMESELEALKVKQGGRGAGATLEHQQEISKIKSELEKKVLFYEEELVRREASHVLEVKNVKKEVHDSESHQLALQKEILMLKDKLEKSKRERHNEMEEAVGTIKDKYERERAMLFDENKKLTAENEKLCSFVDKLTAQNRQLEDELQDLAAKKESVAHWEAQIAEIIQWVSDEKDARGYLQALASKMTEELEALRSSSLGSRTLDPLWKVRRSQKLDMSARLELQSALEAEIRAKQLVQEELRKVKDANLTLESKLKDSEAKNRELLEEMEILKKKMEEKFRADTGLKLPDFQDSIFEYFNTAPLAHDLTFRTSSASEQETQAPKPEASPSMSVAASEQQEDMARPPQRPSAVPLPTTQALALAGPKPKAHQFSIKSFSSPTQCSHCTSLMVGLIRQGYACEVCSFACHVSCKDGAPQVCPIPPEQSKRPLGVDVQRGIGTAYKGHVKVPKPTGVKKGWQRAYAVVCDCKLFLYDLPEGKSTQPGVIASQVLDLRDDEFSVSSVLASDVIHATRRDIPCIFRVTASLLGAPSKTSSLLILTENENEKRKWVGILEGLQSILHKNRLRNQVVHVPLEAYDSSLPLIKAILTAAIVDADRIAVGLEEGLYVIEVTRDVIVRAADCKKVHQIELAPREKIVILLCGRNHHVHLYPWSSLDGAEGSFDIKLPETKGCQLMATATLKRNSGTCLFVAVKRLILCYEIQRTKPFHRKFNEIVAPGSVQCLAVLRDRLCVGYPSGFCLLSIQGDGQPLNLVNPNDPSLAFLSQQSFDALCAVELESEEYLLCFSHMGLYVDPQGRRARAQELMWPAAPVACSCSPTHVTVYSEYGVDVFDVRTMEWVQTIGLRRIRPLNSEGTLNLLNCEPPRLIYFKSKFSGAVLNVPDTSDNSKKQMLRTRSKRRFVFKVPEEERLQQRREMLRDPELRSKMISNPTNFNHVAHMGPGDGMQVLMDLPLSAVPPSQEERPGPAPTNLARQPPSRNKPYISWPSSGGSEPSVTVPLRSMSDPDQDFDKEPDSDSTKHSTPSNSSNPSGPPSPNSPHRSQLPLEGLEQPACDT
Chain of AURKB (human) (Q96GD4 whole entry, looked up): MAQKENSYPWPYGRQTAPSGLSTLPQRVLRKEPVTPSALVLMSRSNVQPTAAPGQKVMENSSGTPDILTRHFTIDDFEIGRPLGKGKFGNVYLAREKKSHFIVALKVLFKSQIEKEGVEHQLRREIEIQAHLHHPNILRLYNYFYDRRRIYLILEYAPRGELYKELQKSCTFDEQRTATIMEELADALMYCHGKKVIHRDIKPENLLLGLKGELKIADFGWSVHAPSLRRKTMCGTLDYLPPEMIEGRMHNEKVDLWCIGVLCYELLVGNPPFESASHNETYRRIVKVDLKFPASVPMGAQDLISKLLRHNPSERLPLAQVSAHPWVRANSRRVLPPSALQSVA
Chain of TBK1 (human) (Q9UHD2 whole entry, looked up): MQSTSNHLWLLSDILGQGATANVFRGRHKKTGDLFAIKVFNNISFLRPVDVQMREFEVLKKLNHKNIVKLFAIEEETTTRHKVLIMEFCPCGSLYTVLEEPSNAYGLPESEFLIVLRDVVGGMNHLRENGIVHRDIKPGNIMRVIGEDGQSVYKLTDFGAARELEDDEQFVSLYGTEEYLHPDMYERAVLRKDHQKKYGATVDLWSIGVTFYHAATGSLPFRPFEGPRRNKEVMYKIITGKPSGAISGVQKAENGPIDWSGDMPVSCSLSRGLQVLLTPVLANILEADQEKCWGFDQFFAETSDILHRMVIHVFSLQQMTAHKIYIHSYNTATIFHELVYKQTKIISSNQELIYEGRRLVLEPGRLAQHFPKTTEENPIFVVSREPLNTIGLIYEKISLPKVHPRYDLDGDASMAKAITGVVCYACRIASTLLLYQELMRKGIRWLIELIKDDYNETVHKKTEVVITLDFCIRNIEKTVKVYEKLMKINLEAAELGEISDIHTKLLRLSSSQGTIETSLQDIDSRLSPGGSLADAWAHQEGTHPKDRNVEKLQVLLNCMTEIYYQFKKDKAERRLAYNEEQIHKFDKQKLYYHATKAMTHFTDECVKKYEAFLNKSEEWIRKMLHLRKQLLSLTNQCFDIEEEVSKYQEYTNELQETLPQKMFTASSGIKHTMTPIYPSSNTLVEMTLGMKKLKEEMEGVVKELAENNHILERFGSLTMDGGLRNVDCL
Chain of ACVR1 (human) (Q04771 whole entry, looked up): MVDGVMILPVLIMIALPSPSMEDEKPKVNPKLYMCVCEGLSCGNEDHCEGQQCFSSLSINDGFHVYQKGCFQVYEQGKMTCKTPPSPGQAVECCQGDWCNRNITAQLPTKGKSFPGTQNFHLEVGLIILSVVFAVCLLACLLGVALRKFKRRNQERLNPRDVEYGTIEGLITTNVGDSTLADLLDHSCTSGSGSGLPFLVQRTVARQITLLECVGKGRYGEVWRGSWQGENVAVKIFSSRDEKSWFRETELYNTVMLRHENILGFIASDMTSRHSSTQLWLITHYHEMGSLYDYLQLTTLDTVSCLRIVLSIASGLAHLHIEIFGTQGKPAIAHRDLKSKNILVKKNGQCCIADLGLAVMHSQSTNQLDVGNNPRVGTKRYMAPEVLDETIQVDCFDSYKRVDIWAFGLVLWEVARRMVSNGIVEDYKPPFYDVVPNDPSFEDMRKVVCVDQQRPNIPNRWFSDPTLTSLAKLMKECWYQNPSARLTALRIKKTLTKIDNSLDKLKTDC
Chain of JAK3 JH1 JH2 (human) (P52333 whole entry, looked up): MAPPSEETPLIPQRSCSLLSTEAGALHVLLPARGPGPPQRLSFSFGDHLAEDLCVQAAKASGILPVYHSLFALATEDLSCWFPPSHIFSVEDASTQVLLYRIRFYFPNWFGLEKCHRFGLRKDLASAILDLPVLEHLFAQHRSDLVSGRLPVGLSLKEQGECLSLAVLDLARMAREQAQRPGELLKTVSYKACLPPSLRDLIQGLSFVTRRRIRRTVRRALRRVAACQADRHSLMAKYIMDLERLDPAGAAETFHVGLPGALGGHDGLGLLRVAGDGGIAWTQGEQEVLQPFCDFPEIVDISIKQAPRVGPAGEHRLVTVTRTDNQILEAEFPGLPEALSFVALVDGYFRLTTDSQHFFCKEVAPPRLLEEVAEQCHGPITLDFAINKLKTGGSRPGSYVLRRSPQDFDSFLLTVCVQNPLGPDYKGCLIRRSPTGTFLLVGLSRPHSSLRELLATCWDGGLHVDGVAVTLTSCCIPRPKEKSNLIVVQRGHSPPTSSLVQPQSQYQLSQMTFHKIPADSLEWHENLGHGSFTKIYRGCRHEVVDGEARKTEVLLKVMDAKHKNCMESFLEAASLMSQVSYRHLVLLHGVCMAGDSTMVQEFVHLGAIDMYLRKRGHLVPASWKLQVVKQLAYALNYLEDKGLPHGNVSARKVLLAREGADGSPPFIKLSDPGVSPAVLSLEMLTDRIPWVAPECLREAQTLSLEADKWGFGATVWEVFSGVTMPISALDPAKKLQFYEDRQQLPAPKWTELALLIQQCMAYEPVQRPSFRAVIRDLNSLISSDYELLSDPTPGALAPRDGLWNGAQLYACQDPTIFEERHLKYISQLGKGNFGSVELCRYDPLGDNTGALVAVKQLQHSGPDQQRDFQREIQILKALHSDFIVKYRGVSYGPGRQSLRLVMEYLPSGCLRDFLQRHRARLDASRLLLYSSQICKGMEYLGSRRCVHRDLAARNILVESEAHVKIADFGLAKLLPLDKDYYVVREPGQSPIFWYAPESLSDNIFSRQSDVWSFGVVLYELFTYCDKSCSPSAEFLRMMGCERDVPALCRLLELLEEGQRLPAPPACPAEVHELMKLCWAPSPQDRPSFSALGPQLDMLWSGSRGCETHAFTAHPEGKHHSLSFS

Compound: Nc1n[nH]c2nnc(-c3c(-c4ccccc4)nn4ccccc34)cc12
- residual activity (PRKCB1 (human)): 96.5%
- residual activity (MAPK14 (human)): 94.6%
- residual activity (TEC (human)): 96.1%
- residual activity (ERBB2 (human)): 105%
- residual activity (DCLK2 (human)): 100%
- residual activity (RIPK2 (human)): 87%
- residual activity (PHKG1 (human)): 101%
- residual activity (MAP3K5 (human)): 99.3%
- residual activity (FER (human)): 90.8%
- residual activity (CDK4 CCND1 (human)): 89.2%
- residual activity (AKT1 (human)): 98%
- residual activity (ROCK1 (human)): 100%
- residual activity [1]: 104%
- residual activity (KDR (human)): 101%
- residual activity (MAPK11 (human)): 90%
- residual activity (CDC42BPB (human)): 93.4%
- residual activity (NEK2 (human)): 95.3%
- residual activity (STK17A (human)): 99.9%
- residual activity (ACVR1 (human)): 107%
- residual activity (CDK6 CCND1 (human)): 100%
- residual activity (JAK3 JH1 JH2 (human)): 105%
- residual activity (CLK3 (human)): 94.9%
- residual activity (DAPK1 (human)): 95.9%
- residual activity (CSNK1D (human)): 63.2%
- residual activity (MAPK12 (human)): 104%
- residual activity (MERTK (human)): 76.4%
- residual activity (FYN (human)): 95%
- residual activity (EPHB4 (human)): 98.5%
- residual activity (PLK1 (human)): 98.1%
- residual activity (TGFBR2 (human)): 112%
- residual activity (PIM1 (human)): 100%
- residual activity (AURKB (human)): 96.8%
- residual activity (PAK4 (human)): 101%
- residual activity (PDGFRA (human)): 99.7%
- residual activity (MST1R (human)): 102%
- residual activity (TBK1 (human)): 100%
- residual activity (CDK4 CCND3 (human)): 100%
- residual activity (EPHA2 (human)): 98.3%
- residual activity (CHEK2 (human)): 97%
- residual activity (MAP3K14 (human)): 102%
- residual activity (TXK (human)): 88.8%
- residual activity (EPHB3 (human)): 96.8%

Compound: O=c1cc(N2CCNCC2)oc2c(-c3ccccc3)cccc12
- residual activity (PRKCB1 (human)): 91.6%
- residual activity (MAPK14 (human)): 82.8%
- residual activity (TEC (human)): 99.8%
- residual activity (ERBB2 (human)): 95.5%
- residual activity (DCLK2 (human)): 116%
- residual activity (RIPK2 (human)): 82.9%
- residual activity (PHKG1 (human)): 90.7%
- residual activity (MAP3K5 (human)): 106%
- residual activity (FER (human)): 99.2%
- residual activity (CDK4 CCND1 (human)): 115%
- residual activity (AKT1 (human)): 103%
- residual activity (ROCK1 (human)): 104%
- residual activity [1]: 98.5%
- residual activity (KDR (human)): 99.8%
- residual activity (MAPK11 (human)): 105%
- residual activity (CDC42BPB (human)): 97.5%
- residual activity (NEK2 (human)): 86%
- residual activity (STK17A (human)): 98.4%
- residual activity (ACVR1 (human)): 90.3%
- residual activity (CDK6 CCND1 (human)): 94.6%
- residual activity (JAK3 JH1 JH2 (human)): 96.9%
- residual activity (CLK3 (human)): 109%
- residual activity (DAPK1 (human)): 91.1%
- residual activity (CSNK1D (human)): 99.5%
- residual activity (MAPK12 (human)): 92%
- residual activity (MERTK (human)): 98.3%
- residual activity (FYN (human)): 104%
- residual activity (EPHB4 (human)): 101%
- residual activity (PLK1 (human)): 96.6%
- residual activity (TGFBR2 (human)): 88.4%
- residual activity (PIM1 (human)): 92.4%
- residual activity (AURKB (human)): 97.8%
- residual activity (PAK4 (human)): 81.1%
- residual activity (PDGFRA (human)): 97.4%
- residual activity (MST1R (human)): 96%
- residual activity (TBK1 (human)): 98.7%
- residual activity (CDK4 CCND3 (human)): 101%
- residual activity (EPHA2 (human)): 108%
- residual activity (CHEK2 (human)): 96.6%
- residual activity (MAP3K14 (human)): 110%
- residual activity (TXK (human)): 95.4%
- residual activity (EPHB3 (human)): 94.5%

Compound: COc1ccc(-c2cnc3c(-c4ccsc4)cnn3c2)cc1
- residual activity (PRKCB1 (human)): 101%
- residual activity (MAPK14 (human)): 120%
- residual activity (TEC (human)): 124%
- residual activity (ERBB2 (human)): 102%
- residual activity (DCLK2 (human)): 97.5%
- residual activity (RIPK2 (human)): 56.8%
- residual activity (PHKG1 (human)): 73.2%
- residual activity (MAP3K5 (human)): 105%
- residual activity (FER (human)): 81.5%
- residual activity (CDK4 CCND1 (human)): 69.8%
- residual activity (AKT1 (human)): 92.4%
- residual activity (ROCK1 (human)): 95.7%
- residual activity [1]: 86.1%
- residual activity (KDR (human)): 79.8%
- residual activity (MAPK11 (human)): 84.1%
- residual activity (CDC42BPB (human)): 83.4%
- residual activity (NEK2 (human)): 90.2%
- residual activity (STK17A (human)): 91.6%
- residual activity (ACVR1 (human)): 91.1%
- residual activity (CDK6 CCND1 (human)): 53.4%
- residual activity (JAK3 JH1 JH2 (human)): 98.5%
- residual activity (CLK3 (human)): 100%
- residual activity (DAPK1 (human)): 103%
- residual activity (CSNK1D (human)): 83.6%
- residual activity (MAPK12 (human)): 94.8%
- residual activity (MERTK (human)): 81.2%
- residual activity (FYN (human)): 86.3%
- residual activity (EPHB4 (human)): 87.5%
- residual activity (PLK1 (human)): 101%
- residual activity (TGFBR2 (human)): 84.1%
- residual activity (PIM1 (human)): 97.5%
- residual activity (AURKB (human)): 50.8%
- residual activity (PAK4 (human)): 72.5%
- residual activity (PDGFRA (human)): 74.8%
- residual activity (MST1R (human)): 91.6%
- residual activity (TBK1 (human)): 77.7%
- residual activity (CDK4 CCND3 (human)): 82.9%
- residual activity (EPHA2 (human)): 95.9%
- residual activity (CHEK2 (human)): 89.1%
- residual activity (MAP3K14 (human)): 106%
- residual activity (TXK (human)): 85.2%
- residual activity (EPHB3 (human)): 99.4%
